The first test addresses T1, human KV 1.5 (IKur) (Homo sapiens, UniProt P22460).
T1 construct: expressed in transfected cells
Put plainly: block of IKur current in patch clamped L-929 cells expressing human Kv1.5. The format is cell-based. The conditions noted are these: 0.3 μM; patch clamped mammalian L-929 cells stably expressing human Kv1.5. An excerpt:
Assays to determine the degree of activity of a compound as an IKur inhibitor are well known in the art and are described in references such as J. Gen. Physiol., 101(4):513-543 (April 1993), and Br. J. Pharmacol., 115(2):267-274 (May 1995).
Synders, D. J. et al., “A rapidly activating and slowly inactivating potassium channel cloned from human heart: functional analysis after stable mammalian cell culture expression”, J. Gen. Physiol., 101:513-543 (1993). • 2. Zhou, Z. et al., “Block of HERG potassium channels by the antihistamine astemizole and its metabolites desmethylastemizole and norastemizole”, J. Cardiovasc. Electrophysiol., 10(6):836-843 (1999).
T1 sequence (P22460 whole entry): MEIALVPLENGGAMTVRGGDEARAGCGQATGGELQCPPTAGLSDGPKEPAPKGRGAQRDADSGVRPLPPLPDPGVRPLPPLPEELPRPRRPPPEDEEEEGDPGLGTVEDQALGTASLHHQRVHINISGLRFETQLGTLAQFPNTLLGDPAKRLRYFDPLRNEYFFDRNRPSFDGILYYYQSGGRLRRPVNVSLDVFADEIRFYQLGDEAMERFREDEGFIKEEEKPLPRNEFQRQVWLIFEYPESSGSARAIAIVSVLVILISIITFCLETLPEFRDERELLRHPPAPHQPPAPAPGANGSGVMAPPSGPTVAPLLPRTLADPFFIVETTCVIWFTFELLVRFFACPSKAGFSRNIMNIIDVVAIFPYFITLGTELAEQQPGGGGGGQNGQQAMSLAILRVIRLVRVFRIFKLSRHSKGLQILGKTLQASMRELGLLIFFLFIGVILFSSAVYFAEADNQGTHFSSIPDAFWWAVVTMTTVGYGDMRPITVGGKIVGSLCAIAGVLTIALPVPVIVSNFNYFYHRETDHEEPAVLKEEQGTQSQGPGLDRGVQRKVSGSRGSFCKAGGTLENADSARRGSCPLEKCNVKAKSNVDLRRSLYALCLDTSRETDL
As for `CC(Nc1nc(-c2cncc(S(N)(=O)=O)c2)nn2ccc(-c3ccccc3)c12)c1ccc(F)cc1` (stereo not drawn) [Example 77, 5-(4-(1-(4-fluorophenyl)ethylamino)-5-phenylpyrrolo[1,2-f] [1,2,4]triazin-2-yl)pyridine-3-sulfonamide], the “KV1_5% Inh L929 @0.3 μM” value is recorded as 95.70%.

Still in this test, the particulars now being: L929, 0.3 μM; patch clamped mammalian L-929 cells stably expressing human Kv1.5; read-out: KV1_5% Inh L929 @0.3 μM.
With `CC(C)CS(=O)(=O)Nc1cncc(-c2nc(NCc3ccccn3)c3c(-c4ccccc4)ccn3n2)c1` [Example 58, 2-methyl-N-(5-(5-phenyl-4-(pyridin-2-ylmethylamino)pyrrolo [1,2-f][1,2,4]triazin-2-yl)pyridin-3-yl) propane-1-sulfonamide], the inhibition at 0.3 µM came to 96.1%. Turning to `CCOC(=O)Nc1cncc(-c2nc(NCc3ccccn3)c3c(-c4ccccc4)ccn3n2)c1` [Example 59, ethyl 5-(5-phenyl-4-(pyridin-2-ylmethylamino)pyrrolo[1,2-f][1,2,4]triazin-2-yl)pyridin-3-ylcarbamate], the inhibition at 0.3 µM stood at 97%. The same measure, in the same setting: in the case of `CCOC(=O)CS(=O)(=O)Nc1cccc(-c2nc(NCc3ccccn3)c3c(-c4ccccc4)ccn3n2)c1` [Example 60, ethyl 2-(N-(3-(5-phenyl-4-(pyridin-2-ylmethylamino)pyrrolo[1,2-f][1,2,4]triazin-2-yl)phenyl)sulfamoyl)acetate] it was 97.6%. For `O=S(=O)(CC(F)(F)F)Nc1cncc(-c2nc(NCc3ccccn3)c3c(-c4ccccc4)ccn3n2)c1` [Example 61, 2,2,2-trifluoro-N-(5-(5-phenyl-4-(pyridin-2-ylmethylamino)pyrrolo [1,2-f][1,2,4]triazin-2-yl)pyridin-3-yl)ethanesulfonamide], the inhibition at 0.3 µM was 90%. On the same count and under the same terms, in the case of `CCS(=O)(=O)Nc1cncc(-c2nc(NCc3ccccn3)c3c(-c4ccccc4)ccn3n2)c1` [Example 62, N-(5-(5-phenyl-4-(pyridin-2-ylmethylamino)pyrrolo[1,2-f][1,2,4]triazin-2-yl)pyridin-3-yl)ethanesulfonamide] it was 97.9%; in that of `O=S(=O)(CCCCl)Nc1cncc(-c2nc(NCc3ccccn3)c3c(-c4ccccc4)ccn3n2)c1` [Example 63, 3-chloro-N-(5-(5-phenyl-4-(pyridin-2-ylmethylamino)pyrrolo[1,2-f][1,2,4]triazin-2-yl)pyridin-3-yl)propane-1-sulfonamide], 97.8%. On to `CC(C)S(=O)(=O)Nc1cncc(-c2nc(NCc3ccccn3)c3c(-c4ccccc4)ccn3n2)c1` [Example 64, N-(5-(5-phenyl-4-(pyridin-2-ylmethylamino)pyrrolo[1,2-f][1,2,4]triazin-2-yl)pyridin-3-yl)propane-2-sulfonamide], for which the inhibition at 0.3 µM was 97.6%.

As for `c1ccc(-c2ccn3nc(-c4cn[nH]c4)nc(NCc4ccccn4)c23)cc1` [Example 65, 5-phenyl-2-(1H-pyrazol-4-yl)-N-(pyridin-2-ylmethyl) pyrrolo[1,2-f][1,2,4] triazin-4-amine], the inhibition at 0.3 µM was determined as 97.7%.

Regarding `N#Cc1cccc(-c2nc(NCc3ccccn3)c3c(-c4ccccc4)ccn3n2)c1` [Example 66, 3-(5-phenyl-4-(pyridin-2-ylmethylamino)pyrrolo[1,2-f][1,2,4]triazin-2-yl)benzonitrile], the inhibition at 0.3 µM was found to be 89.2%.

With `N#Cc1ccc(-c2nc(NCc3ccccn3)c3c(-c4ccccc4)ccn3n2)cc1` [Example 67, 4-(5-phenyl-4-(pyridin-2-ylmethylamino)pyrrolo [1,2-f][1,2,4]triazin-2-yl)benzonitrile], the inhibition at 0.3 µM was determined as 97.8%.

As for `Nc1cncc(-c2nc(NCc3ccccn3)c3c(-c4cncc(N)c4)ccn3n2)c1` [Example 68, 5,5′-(4-(pyridin-2-ylmethylamino)pyrrolo [1,2-f][1,2,4]triazine-2-,5-diyl)dipyridin-3-amine], the inhibition at 0.3 µM came to 28.1%. As for `N#Cc1cccc(-c2ccn3nc(-c4cncc(N)c4)nc(NCc4ccccn4)c23)c1` [Example 69, 3-(2-(5-aminopyridin-3-yl)-4-(pyridin-2-ylmethylamino)pyrrolo [1,2-f][1,2,4]triazin-5-yl)benzonitrile], the inhibition at 0.3 µM came to 80.3%. For `COc1ccc(-c2ccn3nc(-c4cncc(N)c4)nc(NCc4ccccn4)c23)cn1` [Example 70, 2-(5-aminopyridin-3-yl)-5-(6-methoxypyridin-3-yl)-N-(pyridin-2-ylmethyl) pyrrolo[1,2-f][1,2,4] triazin-4-amine], the inhibition at 0.3 µM came to 85.4%. As for `Cc1ncc(-c2nc(NCc3ccccn3)c3c(-c4ccccc4)ccn3n2)cc1N` [Example 71, 2-(5-amino-6-methylpyridin-3-yl)-5-phenyl-N-(pyridin-2-ylmethyl)pyrrolo[1,2-f] [1,2,4]triazin-4-amine], the inhibition at 0.3 µM is 89.1%.

`CC(C)OC(=O)Nc1cncc(-c2nc(NCc3ccccn3)c3c(-c4ccccc4)ccn3n2)c1` [Example 72, isopropyl 5-(5-phenyl-4-(pyridin-2-ylmethylamino)pyrrolo[1,2-f][1,2,4]triazin-2-yl)pyridin-3-ylcarbamate]: the inhibition at 0.3 µM came to 95.5%. For the compound `Nc1cncc(-c2nc(NCC3CCCCC3)c3c(-c4ccccc4)ccn3n2)c1` [Example 73, 2-(5-aminopyridin-3-yl)-N-(cyclohexylmethyl)-5-phenylpyrrolo[1,2-f] [1,2,4] triazin-4-amine], the inhibition at 0.3 µM came out at 88.3%. For the compound `CS(=O)(=O)Nc1cncc(-c2nc(NCc3ccccc3)c3c(-c4ccccc4)ccn3n2)c1` [Example 74, N-(5-(4-(benzylamino)-5-phenylpyrrolo [1,2-f][1,2,4]triazin-2-yl)pyridin-3-yl) methanesulfonamide], the inhibition at 0.3 µM was determined as 96.7%.

Turning to `CS(=O)(=O)Nc1cncc(-c2nc(NCC3CCCCC3)c3c(-c4ccccc4)ccn3n2)c1` [Example 75, N-(5-(4-(cyclohexylmethylamino)-5-phenylpyrrolo[1,2-f] [1,2,4]triazin-2-yl)pyridin-3-yl)methanesulfonamide], the inhibition at 0.3 µM was 90.9%.

Regarding `CC(Nc1nc(-c2cncc(S(N)(=O)=O)c2)nn2ccc(-c3ccccc3)c12)c1ccc(F)cc1` (stereo not drawn) [Example 76, 5-(4-(1-(4-fluorophenyl)ethylamino)-5-phenylpyrrolo[1,2-f] [1,2,4]triazin-2-yl) pyridine-3-sulfonamide], the inhibition at 0.3 µM was found to be 93.8%.

Turning to `O=C(O)CC(=O)Nc1cncc(-c2nc(NCc3ccccc3)c3c(-c4ccccc4)ccn3n2)c1` [Example 78, 3-(5-(4-(benzylamino)-5-phenylpyrrolo [1,2-f][1,2,4]triazin-2-yl)pyridin-3-ylamino)-3-oxopropanoic acid], the inhibition at 0.3 µM amounted to 22.9%. Same read-out and setting: for `NS(=O)(=O)c1cncc(-c2nc(NCc3c(F)cccc3F)c3c(-c4ccccc4)ccn3n2)c1` [Example 79, 5-(4-(2,6-difluorobenzylamino)-5-phenylpyrrolo [1,2-f][1,2,4]triazin-2-yl)pyridine-3-sulfonamide] the value was 96%; for `N#Cc1ccc(-c2nc(NCc3ccccc3)c3c(-c4ccccc4)ccn3n2)cn1` [Example 80, 5-(4-(-benzylamino)-5-phenylpyrrolo [1,2-f][1,2,4]triazin-2-yl) picolinonitrile], 96.9%. Still for that read-out and setting: in the case of `NC(=O)c1ccc(-c2nc(NCc3ccccc3)c3c(-c4ccccc4)ccn3n2)cn1` [Example 81, 5-(4-(benzylamino)-5-phenylpyrrolo [1,2-f][1,2,4]triazin-2-yl) picolinamide] it was 97%.

These data come from US9050345B2, “Pyrrolotriazines as potassium ion channel inhibitors” (BRISTOL-MYERS SQUIBB COMPANY, priority 2013, dated 2015).
